Experimental data reported in patent US7713937B2, “Synthetic peptide amides and dimeric forms thereof” (Cara Therapeutics, Inc., priority 2006, dated 2010).
Square brackets hold non-standard residues; d marks the D form. Side chains are listed from the residue outwards. Peptide text beside a SMILES is read from it. * marks the point of attachment. Piperidinyl(4-(1-Pro-OH)) = O=C(O)[C@@H]1CCCN1C1CCN(*)CC1; Piperidin1yl(4-NH2,4-COOH) = NC1(C(=O)O)CCN(*)CC1; Homopiperazine(4-amidino) = N=C(N)N1CCCN(*)CC1; dAgb = N=C(N)NCC[C@@H](N)C(=O)O; Homopiperazinyl = C1CNCCN(*)C1; dAgp = N=C(N)NC[C@@H](N)C(=O)O; dNle = CCCC[C@@H](N)C(=O)O; Api = NC1(C(=O)O)CCNCC1

Key:
[1] = target: T1, mouse kappa opioid receptor (mKOR) (Mus musculus, UniProt P33534); assay: cell-based; settings: for Emax: read-out: mKOR Efficacy(%)
T1 construct: Stimulation of Endogenous Mouse Kappa-Opioid Receptor in R1.G1 Cells; host or cells: R1.G1 mouse thymoma cells

[2] = target: T2, human kappa opioid receptor (hKOR) (Homo sapiens, UniProt P41145); assay: cell-based; settings: for Emax: HEK293, read-out: hKOR Efficacy(%)
T2 construct: expressed in transfected cells; host or cells: HEK-293 cells, transient transfection with Fugene6
T2 sequence (P41145 whole entry): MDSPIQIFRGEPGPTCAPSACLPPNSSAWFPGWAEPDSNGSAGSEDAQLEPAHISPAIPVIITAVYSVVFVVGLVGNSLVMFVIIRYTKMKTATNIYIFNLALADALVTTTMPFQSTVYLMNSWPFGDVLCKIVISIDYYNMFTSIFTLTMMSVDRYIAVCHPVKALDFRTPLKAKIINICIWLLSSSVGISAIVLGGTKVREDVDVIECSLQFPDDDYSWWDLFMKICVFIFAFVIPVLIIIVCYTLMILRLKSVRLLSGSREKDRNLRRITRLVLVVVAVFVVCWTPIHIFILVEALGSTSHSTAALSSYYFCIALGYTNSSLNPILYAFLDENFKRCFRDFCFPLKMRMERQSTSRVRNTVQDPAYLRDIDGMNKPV

T1 sequence (P33534 whole entry): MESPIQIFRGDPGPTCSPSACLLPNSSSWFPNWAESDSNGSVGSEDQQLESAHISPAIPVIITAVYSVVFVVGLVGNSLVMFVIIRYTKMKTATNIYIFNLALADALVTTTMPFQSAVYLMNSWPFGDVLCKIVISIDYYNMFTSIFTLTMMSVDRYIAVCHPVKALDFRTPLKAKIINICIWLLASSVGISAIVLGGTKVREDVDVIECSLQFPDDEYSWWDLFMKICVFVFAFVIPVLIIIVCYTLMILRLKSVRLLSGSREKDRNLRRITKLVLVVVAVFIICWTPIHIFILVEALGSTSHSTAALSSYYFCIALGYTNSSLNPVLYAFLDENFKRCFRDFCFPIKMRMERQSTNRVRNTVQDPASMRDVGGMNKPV

SMILES	Emax [1] [%]	Emax [2] [%]	EC50 [1] [nM]	EC50 [2] [nM]
CC(C)C[C@@H](NC(=O)[C@@H](Cc1ccccc1)NC(=O)[C@H](N)Cc1ccccc1)C(=O)N[C@H](CCCCN)C(=O)N1CCC(n2c(=O)[nH]c3cc(Cl)ccc32)CC1 [Compound (28), D-Phe-D-Phe-D-Leu-D-Lys-[5-chloro-1-(piperidin-4-yl)-1H-benzo[d]imidazol-2(3)H-one amide]]	83	100	–	–
CC(C)C[C@@H](NC(=O)[C@@H](Cc1ccccc1)NC(=O)[C@H](N)Cc1ccccc1)C(=O)N[C@H](CCCCN)C(=O)NCc1cn2ccccc2n1 [Compound (34), D-Phe-D-Phe-D-Leu-D-Lys-[imidazo[1,2-a]pyridine-2-ylmethyl amide]]	90	101	0.354	0.0208
CCCC[C@@H](NC(=O)[C@@H](Cc1ccccc1)NC(=O)[C@H](N)Cc1ccccc1)C(=O)N[C@H](CCCNC(=N)N)C(=O)N1CCC[C@@H]1C(=O)O [Compound (40), D-Phe-D-Phe-D-Nle-D-Arg-D-Pro-OH] (H-[dF][dF][dNle][dR][dP]-OH)	88	–	9.05	–
CC(C)C[C@@H](NC(=O)[C@@H](Cc1ccccc1)NC(=O)[C@H](N)Cc1ccccc1)C(=O)N[C@H](CCCN)C(=O)N1CCC(N2CCC[C@H]2C(N)=O)CC1 [Compound (50), D-Phe-D-Phe-D-Leu-D-Orn-[N-(4-piperidinyl)-L-proline]-NH2]	96	–	0.022	0.19
CC(C)C[C@@H](NC(=O)[C@@H](Cc1ccccc1)NC(=O)[C@H](N)Cc1ccccc1)C(=O)N[C@H](CCCCN)C(=O)N1CCN(S(=O)(=O)N(C)C)CC1 [Compound (67), D-Phe-D-Phe-D-Leu-D-Lys-[N,N-dimethylpiperazine-1-sulfonamide amide]]	86	101	0.193	0.0194
CC(C)C[C@@H](NC(=O)[C@@H](Cc1ccccc1)NC(=O)[C@H](N)Cc1ccccc1)C(=O)N[C@H](CCCN)C(=O)N[C@H]1CN[C@H](C(=O)O)C1 [Compound (41), D-Phe-D-Phe-D-Leu-D-Orn-[(2S,4R)-4-amino-pyrrolidine-2-carboxylic acid]-OH]	87	–	50.6	–
CC(C)C[C@@H](NC(=O)[C@@H](Cc1ccccc1)NC(=O)[C@H](N)Cc1ccccc1)C(=O)N[C@H](CCCCN)C(=O)N1CCN(C(=O)c2ccccc2)CC1 [Compound (70), D-Phe-D-Phe-D-Leu-D-Lys-[phenyl(piperazin-1-yl)methanone amide]]	92	94	0.348	0.012
CC(C)C[C@@H](NC(=O)[C@@H](Cc1ccccc1)NC(=O)[C@H](N)Cc1ccccc1)C(=O)N[C@H](CNC(=N)N)C(=O)N1CCCNCC1 [Compound (20), D-Phe-D-Phe-D-Leu-(β-amidino)D-Dap-[homopiperazine amide]] (H-[dF][dF][dL][dAgp]-Homopiperazinyl)	102	84	0.491	0.39
CNCCCC[C@@H](NC(=O)[C@@H](CC(C)C)NC(=O)[C@@H](Cc1ccccc1)NC(=O)[C@H](N)Cc1ccccc1)C(=O)N1CCC(N)(C(=O)O)CC1 [Compound (3), D-Phe-D-Phe-D-Leu-(ε-Me)D-Lys-[ω(4-aminopiperidine-4-carboxylic acid)]-OH]	96	100	0.052	0.16
CC(C)C[C@@H](NC(=O)[C@@H](Cc1ccccc1)NC(=O)[C@H](N)Cc1ccccc1)C(=O)N[C@H](CCCCN)C(=O)N1CCC2(CCN(C)C2=O)CC1 [Compound (26), D-Phe-D-Phe-D-Leu-D-Lys-[2-methyl-2,8-diazaspiro[4,5]decan-1-one amide]]	86	99	0.0194	0.0083
CC(C)C[C@@H](NC(=O)[C@@H](Cc1ccccc1)NC(=O)[C@H](N)Cc1ccccc1)C(=O)N[C@H](CCCCN)C(=O)NCc1ccc2[nH]c(=O)[nH]c2c1 [Compound (74), D-Phe-D-Phe-D-Leu-D-Lys-[5-(aminomethyl)-1H-benzo[d]imidazol-2(3H)-one amide]]	87	99	0.072	0.0063
CC(C)C[C@@H](NC(=O)[C@@H](Cc1ccccc1)NC(=O)[C@H](N)Cc1ccccc1)C(=O)N[C@H](CNC(=N)N)C(=O)N1CCC(N)(C(=O)O)CC1 [Compound (10), D-Phe-D-Phe-D-Leu-(β-amidino)D-Dap-[ω(4-aminopiperidine-4-carboxylic acid)]-OH] (H-[dF][dF][dL][dAgp]-{Piperidin1yl(4-NH2,4-COOH)})	90	86	0.826	0.3
CC(C)C[C@@H](NC(=O)[C@@H](Cc1ccccc1)NC(=O)[C@H](N)Cc1ccccc1)C(=O)N[C@H](CCCCN)C(=O)N1CCN(c2ccccn2)CC1 [Compound (65), D-Phe-D-Phe-D-Leu-D-Lys-[1-(pyridin-2-yl)piperazine amide]]	89	100	0.0471	0.0059
CC(C)C[C@@H](NC(=O)[C@@H](Cc1ccccc1)NC(=O)[C@H](N)Cc1ccccc1)C(=O)N[C@H](CCCN)C(=O)N1CCC(CCCC(=O)O)CC1 [Compound (48), D-Phe-D-Phe-D-Leu-D-Orn-[4-(4-piperidinyl)-butanoic acid]-OH]	100	97	0.092	0.26
CNCCCC[C@@H](NC(=O)[C@@H](CC(C)C)NC(=O)[C@@H](Cc1ccccc1)NC(=O)[C@H](N)Cc1ccccc1)C(=O)N1CCC(N2CCC[C@H]2C(=O)O)CC1 [Compound (6), D-Phe-D-Phe-D-Leu-(ε-Me)D-Lys-[N-(4-piperidinyl)-L-proline]-OH]	94	100	0.036	0.13
CC(C)C[C@@H](NC(=O)[C@@H](Cc1ccccc1)NC(=O)[C@H](N)Cc1ccccc1)C(=O)N[C@H](CCCN)C(=O)N1CCOC(C(=O)O)C1 (stereo partly drawn) [Compound (90), D-Phe-D-Phe-D-Leu-D-Orn-[R/S-2-carboxymorpholine]-OH]	100	100	0.178	0.16
CC(C)C[C@@H](NC(=O)[C@@H](Cc1ccccc1)NC(=O)[C@H](N)Cc1ccccc1)C(=O)N[C@H](CCCCN)C(=O)N1CCCN(C(=N)N)CC1 [Compound (15), D-Phe-D-Phe-D-Leu-D-Lys-[4-amidinohomopiperazine amide]]	92	92	0.028	0.11
CC(C)C[C@@H](NC(=O)[C@@H](Cc1ccccc1)NC(=O)[C@H](N)Cc1ccccc1)C(=O)N[C@H](CCNC(=N)N)C(=O)N1CCC(N2CCC[C@H]2C(=O)O)CC1 [Compound (13), D-Phe-D-Phe-D-Leu-D-Nar-[N-(4-piperidinyl)-L-proline]-OH] (H-[dF][dF][dL][dAgb]-{Piperidinyl(4-(1-Pro-OH))})	88	90	0.032	0.13
CCCC[C@@H](NC(=O)[C@@H](Cc1ccccc1)NC(=O)[C@H](N)Cc1ccccc1)C(=O)N[C@H](CNC(=N)N)C(=O)N1CCCN(C(=N)N)CC1 [Compound (19), D-Phe-D-Phe-D-Nle-(β-amidino)D-Dap-[4-amidinohomopiperazine amide]] (H-[dF][dF][dNle][dAgp]-{Homopiperazine(4-amidino)})	99	–	2.15	–
CC(C)C[C@@H](NC(=O)[C@@H](Cc1ccccc1)NC(=O)[C@H](N)Cc1ccccc1)C(=O)N[C@H](CCCN)C(=O)NC1CCN(CC(N)=O)CC1 [Compound (51), D-Phe-D-Phe-D-Leu-D-Orn-[4-amino-1-carboxymethyl-piperidine]-NH2]	93	–	1.97	–
CC(C)C[C@@H](NC(=O)[C@@H](Cc1ccccc1)NC(=O)[C@H](N)Cc1ccccc1)C(=O)N[C@H](CCCN)C(=O)NCCCC[C@@H](NC(=O)[C@H](N)CCCN)C(=O)O [Compound (82)]	–	–	0.12	–
CC(C)C[C@@H](NC(=O)[C@@H](Cc1ccccc1)NC(=O)[C@H](N)Cc1ccccc1)C(=O)N[C@H](CCNC(=N)N)C(=O)NC1(C(=O)O)CCN(C(=O)[C@@H](CCNC(=N)N)NC(=O)[C@@H](CC(C)C)NC(=O)[C@@H](Cc2ccccc2)NC(=O)[C@H](N)Cc2ccccc2)CC1 [Compound (88), 1N,4N-bis-(D-Phe-D-Phe-D-Leu-D-Nar)-4-amino-4-carboxylic piperidine] (H-[dF][dF][dL][dAgb][Api]([dAgb-dL-dF-dF])-OH)	76	–	13.8	–
CC(C)C[C@@H](NC(=O)[C@H](N)Cc1ccccc1)C(=O)N[C@H](CCCN)C(=O)N[C@H](CCCCNC(=O)[C@@H](CCCN)NC(=O)[C@@H](CC(C)C)NC(=O)[C@@H](Cc1ccccc1)NC(=O)[C@H](N)Cc1ccccc1)C(=O)O [Compound (84)]	85	–	0.34	–
CC(C)C[C@@H](N)C(=O)N[C@H](CCCN)C(=O)N[C@H](CCCCNC(=O)[C@@H](CCCN)NC(=O)[C@@H](CC(C)C)NC(=O)[C@@H](Cc1ccccc1)NC(=O)[C@H](N)Cc1ccccc1)C(=O)O [Compound (83)]	91	–	0.05	–
CC(C)C[C@@H](NC(=O)[C@@H](Cc1ccccc1)NC(=O)[C@H](N)Cc1ccccc1)C(=O)N[C@H](CCCNC(C)C)C(=O)NC1(C(=O)O)CCN(C(=O)[C@@H](CCCNC(C)C)NC(=O)[C@@H](CC(C)C)NC(=O)[C@@H](Cc2ccccc2)NC(=O)[C@H](N)Cc2ccccc2)CC1 [Compound (86), 1N,4N-bis-[D-Phe-D-Phe-D-Leu-(iPr)D-Orn]-4-amino-4-carboxylic-piperidine]	77	–	56.7	–
CC(C)C[C@@H](NC(=O)[C@@H](Cc1ccccc1)NC(=O)[C@H](N)Cc1ccccc1)C(=O)N[C@H](CCCN)C(=O)N[C@@H]1CN[C@H](C(=O)O)C1 [Compound (42), D-Phe-D-Phe-D-Leu-D-Orn-[(2S,45)-4-amino-pyrrolidine-2-carboxylic acid]-OH]	96	–	3	–
